Reference: article PMC6753678, “Fueling Open Innovation for Malaria Transmission-Blocking Drugs: Hundreds of Molecules Targeting Early Parasite Mosquito Stages” (Frontiers in Microbiology, 2019)
Read-outs that look alike come from different tables or passages of the source.

Key:
[1] = system: HepG2 cells; experiment: HepG2 cytotoxicity assay; settings: for IC50: read-out: HepG2 cytotoxicity assay IC50, dose response confirmation; for Unified cytotox: unified HepG2 value across the three screens; for Pb ODA (this manuscript) HepG2 cytoxicity: HepG2 cytotoxicity listed with the Pb ODA data set (this manuscript)
Method in brief: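 Cells at 2,500 per well in MEM with 10% fetal bovine serum and 1% NEAA were exposed to test compounds for 48 h at 37°C, 5% CO2. Viability was read by fluorescence, with percent inhibition calculated against 50 μM doxorubicin (positive) and DMSO (negative) controls.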

[2] = system: P. berghei ookinete development; settings: for % inhibition, Replicate A / % inhibition, Replicate B: primary screen at 1 μM
[3] = system: 3D7-strain P. falciparum asexual parasites; experiment: P. falciparum asexual growth inhibition assay (Pf GIA); format: cell-based, Plasmodium falciparum; settings: dose response confirmation; read-out: Pf asexual growth inhibition assays IC50
Method in brief: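 3D7 parasites at 0.25% parasitemia, 2% hematocrit were exposed to compounds in dose response for 72 h at 37°C under 5% CO2, 5% O2. Viability read as parasite LDH activity (nitro blue tetrazolium, A650) after freeze-thaw; inhibition scaled to chloroquine (50 μM) and DMSO controls, mean of three biological replicates.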

[4] = read-out: Pb ODA IC50, this manuscript
[5] = read-out: Pb Ookinete development assay IC50, dose response confirmation
[6] = read-out: Pb ODA (this manuscript) IC50, P. berghei ookinete development assay, this manuscript

Structure (SMILES)	IC50 [1] [µM]	Unified cytotox [1] [µM]	Is compound selective in assay? Pb ODA active? ([2]; 1: YES, 0: NO)	% inhibition, Replicate A [2] [%]	% inhibition, Replicate B [2] [%]	IC50 [2, 4] [µM]	IC50 [2, 5] [µM]	IC50 [3] [µM]	Pb ODA (this manuscript) HepG2 cytoxicity [1] [µM]	Is compound selective in assay? Pb ODA active? [2]	IC50 [2, 6] [µM]
COc1cccc(CC(=O)N2CCC(n3c(C)nc4ccc(F)cc43)CC2)c1 [TCMDC-124792]	100	100.00	1 (1: YES)	59.80	82.85	0.79	0.794	0.208			
Cl.O=C(NC1CCN(CC2(c3ccc(Cl)cc3)CCCCC2)CC1)c1cc[nH]n1 [TCMDC-124828]	35.9			40.92	76.27		1.62	0.066	35.89	1 (key: 1: YES; 0: NO)	1.62
Cc1cc(C(=O)NC2CCN(CC3(c4ccccc4)CCCCC3)CC2)on1 [TCMDC-124832]	13.5	13.49	1 (1: YES)	102.69	91.64	0.61	0.613	< 0.0002			
COc1coc(C(=O)NC2CCN(CC3(c4ccc(Cl)cc4)CCC3)CC2)c1OC [TCMDC-124835]	52.5	52.48	1 (1: YES)	73.94	84.15	0.9	0.899	0.107			
O=C(NC1CCN(CC2(c3ccccc3F)CCCC2)CC1)c1ccn[nH]1 [TCMDC-124837]	41.7			77.91	70.40		1.49	0.456	41.69	1 (key: 1: YES; 0: NO)	1.49
Cc1ccc(C2(CN3CCC(NC(=O)c4[nH]ncc4Cl)CC3)CCCCC2)cc1 [TCMDC-124838]	27.2			44.93	53.77		1.43	0.00045	27.23	1 (key: 1: YES; 0: NO)	1.43
Cc1ccc(C2(CN3CCC(NC(=O)c4ccn[nH]4)CC3)CCCCC2)cc1 [TCMDC-124839]	43.1			81.24	59.00		0.968	0.138	43.15	1 (key: 1: YES; 0: NO)	0.97
COc1ccc(NS(=O)(=O)c2cc(NC(=O)Cn3ccccc3=O)ccc2N2CCCCC2)cc1 [TCMDC-124874]	100	100.00	1 (1: YES)	66.12	73.52	1.27	1.27	0.489			
CCc1c(C)nc(-n2nc(C)cc2NC(=O)C(CC)c2ccccc2)[nH]c1=O (centres unmarked) [TCMDC-124935]	0.95			47.36	55.92		8.71	0.558	0.95	0 (key: 1: YES; 0: NO)	8.71
CCc1c(C)nc(-n2nc(C)cc2NC(=O)c2ccc(OC)cc2OC)[nH]c1=O [TCMDC-124937]	10			65.69	36.83		1.51	0.01	10.00	0 (key: 1: YES; 0: NO)	1.51
Cc1cc(=O)[nH]c(-n2nc(C)cc2NC(=O)C2(c3ccc(Cl)cc3)CCCC2)n1 [TCMDC-124943]	3.31			55.02	44.00		1.38	0.967	3.31	0 (key: 1: YES; 0: NO)	1.38
Cc1ccccc1-c1cc(=O)c2cc(NC(=O)c3cccs3)ccc2o1 [TCMDC-124947]	100	100.00	1 (1: YES)	33.03	54.68	4.15	4.15	0.408			
CCN(CC)c1nc(N)c2c(N)nc3c(c2c1C#N)C(=O)CN3Cc1ccccc1 [TCMDC-125024]	100	100.00	1 (1: YES)	101.60	105.52	0.62	0.618	0.038			
Cc1cc(C2NC(=O)c3ccccc3N2)c(C)n1-c1ccc2c(c1)OCO2 (centres unmarked) [TCMDC-125051]	3.47	3.47	0 (0: NO)	87.88	98.84	0.85	0.854	0.051			
Cc1nc(NC2=NCN(CCCN3CCOCC3)CN2)nc2c(C)cccc12 [TCMDC-125086]	100			51.18	62.28		11.1	1.82	100.00		11.1
CCOC(=O)C1=C(C)NC2=C(C(=O)C(C(=O)OC)C(C)C2)C1c1cc(Br)c(OCC)c(OC)c1 (centres unmarked) [TCMDC-125139]	100	100.00	1 (1: YES)	3.38	50.55	9.06	9.06	1.42			
COc1cc(Nc2ccc3cc(S(=O)(=O)N4CCCCC4C)ccc3n2)cc(OC)c1OC (centres unmarked) [TCMDC-125163]	24.6	24.55	1 (1: YES)	58.55	48.73	1.06	1.06	4.26			
CCOc1cccc(C(=O)Nc2nonc2-c2ccc(OC)c(OC)c2)c1 [TCMDC-125179]	6.76	6.76	0 (0: NO)	52.92	35.19	7.64	7.64	< 0.0002			
Cc1ccc(S(=O)(=O)N2CCCN(C(=O)c3cc(-c4ccccc4)n[nH]3)CC2)cc1 [TCMDC-125243]	100			53.41	33.70		5.42	0.273	100.00	1 (key: 1: YES; 0: NO)	5.42
Cc1[nH]c2ccccc2c1C(=O)C(C)Sc1nnc(-c2ccccc2F)o1 (centres unmarked) [TCMDC-125312]	57.5	57.54	1 (1: YES)	63.08	65.66		2.58	1.27			
